Like-named read-outs stand apart in the source and are kept apart here.
Assays:
DltA enzyme = biological target: T1, DltA enzyme (Streptococcus agalactiae serotype III, UniProt Q8VM67); test: DltA HTS assays (luminescent / fluorescent), inhibition of DltA enzymatic activity in vitro; type: biochemical, S. agalactiae; details: Table 1; DltA inhibition, HTS assays of method 1; read-out: IC50
T1 construct: His-tag (from pET100 vector) (N); made in house; host or cells: E. coli BL21 (DE3) Star
T1 sequence (Q8VM67 1-511): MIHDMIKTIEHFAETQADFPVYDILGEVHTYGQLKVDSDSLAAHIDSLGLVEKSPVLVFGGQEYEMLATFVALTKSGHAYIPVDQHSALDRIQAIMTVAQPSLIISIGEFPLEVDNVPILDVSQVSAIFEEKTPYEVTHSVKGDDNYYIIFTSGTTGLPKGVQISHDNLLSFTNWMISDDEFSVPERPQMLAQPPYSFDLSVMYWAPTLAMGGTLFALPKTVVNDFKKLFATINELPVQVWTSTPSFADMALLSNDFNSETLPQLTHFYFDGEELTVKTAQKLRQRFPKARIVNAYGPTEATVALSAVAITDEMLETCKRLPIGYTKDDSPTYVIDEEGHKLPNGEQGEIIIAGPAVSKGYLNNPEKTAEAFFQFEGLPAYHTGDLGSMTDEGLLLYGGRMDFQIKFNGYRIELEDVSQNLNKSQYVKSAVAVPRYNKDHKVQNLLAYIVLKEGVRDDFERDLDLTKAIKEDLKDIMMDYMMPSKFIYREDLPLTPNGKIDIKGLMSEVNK
Text: The compounds effect on DltA enzyme has been based on the measure of the inhibition of DltA activity in vitro.
To this end, a recombinant protein Dlta was expressed and purified after cloning of the gene of S. agalatiae as described below:
Methods 1: DltA HTS Assays
The assay described below makes use of dithiothreitol (DTT) instead of DltC as reactive thiol in the catalyzed reaction. In fact, the inventors have shown that DTT, but also Coenzyme A and N-Acetylcysteamine are all thiols able to replace efficiently DltC. In addition, contrary to the prior art, radioactivity is not used: all the assays are based either on luminescent ATP detection, or on fluorescent AMP detection. They are easily amenable to miniaturized formats and fast readouts as required by HTS.
The assay buffer “AB” contains 50 mM Hepes pH8.0, 10 mM MgCl2, 50 mM KCl, 0.012% Triton-X100. The following components are added in a white polystyrene Costar plate up to a final volume of 30 μL: 3 μL DMSO, or inhibitor dissolved in DMSO and 27 μL DltA enzyme and DTT in AB. After 30 min of pre-incubation at room temperature, 30 μL of Substrates mix in AB are added in each well to a final volume of 60 μL. This reaction mixture is then composed of 10 nM DltA (produced in house from S. agalactiae), 0.5 mM D-Alanine (Sigma), 0.5 μM ATP (Sigma) and 1 mM DTT (Biochemika) in assay buffer. After 90 min of incubation at room temperature, 30 μL of the revelation mix are added to a final volume of 90 μL, including the following constituents at the respective final concentrations: 2 nM luciferase (Sigma), 30 μM D-luciferin (Sigma), 100 μM N-acetylcysteamine (Aldrich). Luminescence intensity is immediately measured on an Analyst-HT (Molecular Devices) and converted into inhibition percentages. For IC50 (Inhibitory Concentration 50%) determinations, the inhibitor is added at 6 to 10 different concentrations, and the related inhibitions are fitted to a classical langmuir equilibrium model using XLFIT (IDBS).
The assay buffer “AB” contains 50 mM Hepes pH8.0, 10 mM MgCl2, 50 mM KCl, 0.012% Triton-X100. The following components are added in a black polystyrene Costar plate up to a final volume of 50 μL: 5 μL DMSO, or inhibitor dissolved in DMSO and 45 μL DltA enzyme and DTT in AB. After 30 min of pre-incubation at room temperature, 50 μL of Substrates-revelation mix in AB are added in each well to a final volume of 100 μL. This reaction mixture is then composed of 5 nM DltA (produced in house from S. agalactiae), 0.5 mM D-Alanine (Sigma), 10 μM ATP (Sigma), 1 mM DTT (Biochemika), 10 nM Adenylate kinase (produced in house), 5 u/mL Pyruvate Kinase (Sigma), 50 μM phosphoenolpyruvate (Sigma), 5 u/mL Lactate deshydrogenase (Sigma) and 3 μM NADH (Sigma) in assay buffer. Fluorescence intensity of NADH (λex=360 nm, λem=520 nm) is immediately measured kinetically by a Fluostar Optima (BMG). Inhibition percentages are derived from fitted initial velocities. For IC50 determinations, the inhibitor is added at 6 to 10 different concentrations, and the related inhibitions are fitted to a classical langmuir equilibrium model using XLFIT (IDBS). FIG. 2 represents the data obtained using this method.
The capacity of compounds to inhibit DltA enzymatic activity was assessed using the DltA HTS assays described in method 1.

S. agalactiae NEM316 WT [1] = test: Minimal Antivirulent Concentration (MAC) assay, sensitization of bacteria to colistin; type: cell-based; details: S. agalactiae wt strain, in presence of colistin 32 μg/ml, overnight, no visible growth
Text: The readout of the assay is called Minimum antivirulent concentration (MAC) and represents the minimal dose of compound for which no visible bacterial growth is observed in the presence of colistin at a subinhibitory concentration. MAC assay is described in Method 3 hereinafter.
Method 3: Assay for Minimal Antivirulent Concentration (MAC) and Minimal Inhibitory Concentration (MIC): Determination of Compounds Activity for Sensitization of Bacteria to Cationic Peptide (Colistin)
The Gram positive bacteria S. agalactiae NEM316 WT are grown on tryptic soy agar (TSA) broth over-night at 37° C. with air enriched with 5% CO2. Ten to fifteen colonies isolated from over-night growth on agar are then added to 10 ml of TS media to produce a standard suspension of organisms. This pre-culture is incubated at 37° C. with constant shaking during two to three hours to reach the exponential phase. This suspension is diluted to obtain a final inoculum of 1E+04 CFU/ml. Viable counts are obtained by plating 10 to 1000-fold dilutions of the suspension on TSA.
According to our standardized conditions, the final volume in the well is 100 μl in a 96-well microplate. Compounds are tested in a range of 1 to 32 μg/mL. Each well contains 2 μl of compound diluted in 100% DMSO, 48 μl of TS (microplate without colistin) or 48 μl of colistin in TS (final concentration of colistin is 32 μg/ml for S. agalactiae), then […] (final inoculum of 1 E+04 CFU/ml). Final concentration of DMSO is 2%. Positive growth control wells for each organism are prepared with and without colistin and DMSO 2% final concentration. S. agalactiae NEM316 Δdlt is used in control wells to verify the effect of the colistin on a sensitive strain.
The microplates are then incubated overnight at 37° C. with 5% CO2. Visible bacterial growth is finally quantified by unaided eye.
The MAC of each compound is derived from the experiment in presence of colistin and is defined as the minimal concentration of compound for which no bacterial visible growth is observed.

S. agalactiae NEM316 WT [2] = test: Minimal Inhibitory Concentration (MIC) assay, absence of colistin; type: cell-based; details: Streptococcus agalactiae, NEM316WT
[3] = system: S. agalactiae strain NEM316; test: Experimental model of systemic infection in mice, organ bacteraemia at 48 h; type: in vivo; details: BALB/c mice, i.v. infection, compound intraperitoneal immediately after infection, spleen bacteraemia 48 h
Experimental: The effect of DltA inhibitors on the bacteria during an infection was assessed by injecting the molecules at different doses in group of mice that have received an infective dose of bacteria.
Description of Experimental Models Used to Assess the Efficacy of Inhibitors In Vivo:
Briefly, in vivo studies were performed using 4-5-week-old female BALB/c@Rj nice. S. agalactiae strain NEM316 bacteria were grown to exponential phase in broth culture. 200 μl of a bacterial suspension of 3.10^7 CFU/ml were administered by intravenous injection to groups of six mice (6.10^6 CFU/mouse). Exact inoculums counts were determined by plating 10-fold dilutions of the suspension on TH agar plates immediately after inoculation.
The compounds to be assessed are dissolved and diluted to obtain different concentration in a solution containing solutol; and 400 μl of each compound solution is injected intraperinonaly immediately after infection of the mouse. […]
The antibacterial effect obtained with different concentrations of compounds is measured by the level of bacteraemia observed at 48 H.
The graphs represent the average value of the organ bacteremia that is determined by the number of UFC/mg of organs (spleen) at 48 h post infection, obtained for each group of mice that have received different concentration of compounds (expressed in mg/kg). […]

[4] = system: S. agalactiae strain NEM316; test: Colistin activity on wild type S. agalactiae; type: cell-based
Text: (§1) The peptide used was colistin which mimicks the effect of antibacterial cationic peptide of innate immunity. In common with other polymixins, colistin is rapidly bactericidal and exerts its effect by acting as a cationic detergent, causing disruption of the integrity of the bacterial cell membrane, with leakage of intracellular contents and cell death.

S. aureus strain 54.316 = test: Colistin activity on S. aureus; type: cell-based
Text: as §1

[5] = system: dltA defective mutant of S. agalactiae; test: Colistin activity on dltA defective mutant; type: cell-based
Text: as §1

[6] = S. agalactiae wt strain, absence of colistin, overnight, no visible growth, read-out: MIC SAG wt

## OCCCNc1nc2cc(C(F)(F)F)ccc2n2c(-c3cccc(CO)c3)cnc12 [Example 16, 3-({1-[3-(hydroxymethyl)phenyl]-7-(trifluoromethyl)imidazo[1,2-a]quinoxalin-4-yl}amino)propan-1-ol]
DltA enzyme
  IC50: 520 nM
S. agalactiae NEM316 WT [1]
  MAC: 8 µg/mL
S. agalactiae NEM316 WT [2]; [6]
  MIC: > 32 µg/mL

## OCCCNc1nc2cc(C(F)(F)F)ccc2n2c(-c3ccn[nH]3)cnc12 [Example 19, 3-{[1-(1H-pyrazol-5-yl)-7-(trifluoromethyl)imidazo[1,2-a]quinoxalin-4-yl]amino}propan-1-ol]
DltA enzyme
  IC50: 9 nM
S. agalactiae NEM316 WT [1]
  MAC: 2 µg/mL
S. agalactiae NEM316 WT [2]; [6]
  MIC: > 32 µg/mL
[3]
  effective concentration: 10 mg/kg

## OCCCNc1nc2cc(C(F)(F)F)ccc2n2c(-c3cnn[nH]3)cnc12 [Example 35, 3-{[1-(1H-1,2,3-triazol-5-yl)-7-(trifluoromethyl)imidazo[1,2-a]quinoxalin-4-yl]amino}propan-1-ol]
DltA enzyme
  IC50: 270 nM
S. agalactiae NEM316 WT [1]
  MAC: 2 µg/mL
S. agalactiae NEM316 WT [2]; read-out: MIC SAG wt (μg/ml)
  MIC: > 32 µg/mL

## CC(C)(C)c1cc(-c2cnc3c(NCCCO)nc4cc(C(F)(F)F)ccc4n23)[nH]n1 [Example 36, 3-({1-[3-tert-butyl-1H-pyrazol-5-yl]-7-(trifluoromethyl)imidazo[1,2-a]quinoxalin-4-yl}amino)propan-1-ol]
DltA enzyme
  IC50: 49 nM
S. agalactiae NEM316 WT [1]
  MAC: 4 µg/mL
S. agalactiae NEM316 WT [2]; [6]
  MIC: > 32 µg/mL

## Cc1cc(-c2cnc3c(NCCCO)nc4cc(C(F)(F)F)ccc4n23)[nH]n1 [Example 39, 3-({1-[3-methyl-1H-pyrazol-5-yl]-7-(trifluoromethyl)imidazo[1,2-a]quinoxalin-4-yl}amino)propan-1-ol]
DltA enzyme
  IC50: 13.5 nM
S. agalactiae NEM316 WT [1]
  MAC: 8 µg/mL
S. agalactiae NEM316 WT [2]; [6]
  MIC: > 32 µg/mL

## CCOC(=O)c1cc(-c2cnc3c(NCCCO)nc4cc(C(F)(F)F)ccc4n23)[nH]n1 [Example 47, 5-[4-(3-Hydroxy-propylamino)-7-trifluoromethyl-imidazo[1,2-a]quinoxalin-1-yl]-1H-pyrazole-3-carboxylic acid ethyl ester]
DltA enzyme
  IC50: 35 nM
S. agalactiae NEM316 WT [1]
  MAC: 8 µg/mL
S. agalactiae NEM316 WT [2]; [6]
  MIC: > 32 µg/mL

## CNC(=O)c1cc(-c2cnc3c(NCCCO)nc4cc(C(F)(F)F)ccc4n23)[nH]n1 [Example 50, 5-{4-[(3-hydroxypropyl)amino]-7-(trifluoromethyl)imidazo[1,2-a]quinoxalin-1-yl}-N-methyl-1H-pyrazole-3-carboxamide]
DltA enzyme
  IC50: 38 nM
S. agalactiae NEM316 WT [1]
  MAC: 8 µg/mL
S. agalactiae NEM316 WT [2]; [6]
  MIC: > 32 µg/mL

## OCCCNc1nc2cc(OC(F)(F)F)ccc2n2c(-c3ccn[nH]3)cnc12 [Example 51, 3-{[1-(1H-pyrazol-5-yl)-7-(trifluoromethoxy)imidazo[1,2-a]quinoxalin-4-yl]amino}propan-1-ol]
DltA enzyme
  IC50: 9 nM
S. agalactiae NEM316 WT [1]
  MAC: 2 µg/mL
S. agalactiae NEM316 WT [2]; [6]
  MIC: > 32 µg/mL

## colistin
[4]; S. agalactiae strain NEM316 wild type
  MIC: ≥ 1024 µg/mL
[4]; colistin 32 μg/ml, S. agalactiae wild type
  effect on the wild type strain growth: without effect
S. aureus strain 54.316
  MIC: ≥ 1024 µg/mL
[5]
  dose that can inhibit totally the growth: 32 µg/mL

Reference: patent US8513250B2 (Laboratoire Biodim, priority 2007, dated 2013)
